# Columns and labels:
# [1] = system: GdG-3 (RNA, riboswitch) GGACAUACAAUCGCGUGGAUAUGGCACGCAAGAUCCCGCCGGGCACCGUAAAUGUCCGACUAUGUCC; assay: ITC; conditions: 100 mM KCl, 20 mM MgCl2; 50 mM K+-Hepes pH 7.5, 30 °C; apparent
# [2] = system: Wild-type G-box B. subtilis xpt–pbuX (xpt) (RNA, riboswitch) GGACAUAUAAUCGCGUGGAUAUGGCACGCAAGUUUCUACCGGGCACCGUAAAUGUCCGACUAUGUCC; assay: ITC; conditions: 100 mM KCl, 20 mM MgCl2; 50 mM K+-Hepes pH 7.5, 30 °C; apparent
compound,measurement,setting,value
Nc1nc2c(ncn2[C@H]2C[C@H](O)[C@@H](CO)O2)c(=O)[nH]1,"KD,dG",[1],39 ± 1 µM
same,"KD,dG",[2],12 ± 1 µM
Nc1nc2c(ncn2[C@@H]2O[C@H](CO)[C@@H](O)[C@H]2O)c(=O)[nH]1,"KD,rG",[1],121 ± 8 µM
Nc1nc2[nH]cnc2c(=O)[nH]1,"KD,G",[1],1200 ± 700 µM

# Reference: article PMC2997738 (2008)
